Our source for the GI50 and TGI values is PubChem BioAssay (NCI).

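48-hour exposure; five concentrations; linearly interpolated endpoints. GI50: concentration for 50% inhibition of growth. TGI denotes the concentration required for complete inhibition of growth.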 Some results are limits rather than exact numbers.

Among the test systems are A549 NSCLC; BT-549 breast; CCRF-CEM leukemia; EKVX NSCLC; M14 melanoma; MDA-MB-231 breast; MOLT-4 leukemia; NCI-H23 lung; NCI/ADR-RES ovarian; PC-3 prostate.
Assay in all cases: growth of human tumour cells (NCI), 48 h

Take `Clc1ccc2c(NCCNc3nc(N4CCOCC4)nc4ccccc34)ccnc2c1`: the GI50 in the assay on A549 NSCLC was 2.96 µM; in the assay on BT-549 breast it was 2.07 µM; in the assay with CCRF-CEM leukemia, 1.67 µM; with EKVX NSCLC it was 4 µM; with M14 melanoma it was 1.94 µM; in the assay on MDA-MB-231 breast it was 1.56 µM. For the same molecule, the GI50 was 3.33 µM with MOLT-4 leukemia, 4.08 µM with NCI-H23 lung, 3.73 µM in the assay with NCI/ADR-RES ovarian and 4.5 µM with PC-3 prostate. Also, the TGI in the assay on A549 NSCLC was found to be 10.6 µM; in the assay with BT-549 breast, 4.69 µM; with CCRF-CEM leukemia it was 11.7 µM; in the assay with EKVX NSCLC, 16.4 µM; in the assay with M14 melanoma it was 3.89 µM; in the assay on MDA-MB-231 breast it was 3.63 µM. In addition, the TGI is 14.1 µM in the assay on MOLT-4 leukemia, 17.8 µM in the assay on NCI-H23 lung, 15.5 µM in the assay with NCI/ADR-RES ovarian and 17.1 µM in the assay with PC-3 prostate.
For the molecule `CCCCNc1ncnc2c1cnn2-c1ccccc1`, the GI50 in the assay on A549 NSCLC is 5.29 µM; in the assay with BT-549 breast, 6.71 µM; in the assay with CCRF-CEM leukemia it was 5.24 µM; in the assay on EKVX NSCLC it was 7.72 µM; with M14 melanoma it was 1.42 µM; in the assay on MDA-MB-231 breast, 16.9 µM. The GI50 was 3.75 µM with MOLT-4 leukemia, 3.34 µM in the assay with NCI-H23 lung, 0.514 µM in the assay with NCI/ADR-RES ovarian and 2.38 µM in the assay with PC-3 prostate. Moreover, the TGI in the assay with A549 NSCLC is over 92.8 µM; in the assay on BT-549 breast, over 69 µM; in the assay on CCRF-CEM leukemia it was over 100 µM; with EKVX NSCLC, over 86.6 µM; in the assay on M14 melanoma, over 45.8 µM; with MDA-MB-231 breast it was 73 µM. Besides, the TGI was over 100 µM with MOLT-4 leukemia, over 100 µM in the assay with NCI-H23 lung, 5.26 µM in the assay on NCI/ADR-RES ovarian and 56.9 µM with PC-3 prostate.
`Cc1cc(C)c2nc3c(c(C(O)C4CCCCN4)c2c1)CC/C3=C\c1ccc(Cl)cc1` (centres undefined): the TGI in the assay with A549 NSCLC, with BT-549 breast, with CCRF-CEM leukemia, in the assay on EKVX NSCLC, with M14 melanoma and with MDA-MB-231 breast was over 100 µM each time. The TGI in the assay on MOLT-4 leukemia, in the assay on NCI-H23 lung, with NCI/ADR-RES ovarian and in the assay with PC-3 prostate was over 100 µM throughout.
For the molecule `CC1(C)CC(O)CC(C)(C)N1O`, the TGI in the assay with A549 NSCLC, with BT-549 breast, in the assay on CCRF-CEM leukemia, with EKVX NSCLC, in the assay on M14 melanoma and in the assay on MDA-MB-231 breast was over 100 µM each time. Besides, the TGI in the assay on MOLT-4 leukemia, in the assay with NCI-H23 lung, with NCI/ADR-RES ovarian and in the assay on PC-3 prostate was over 100 µM throughout. Further, the GI50 with NCI-H23 lung was over 100 µM.
In the case of `O=c1[nH]c2cc(Cl)ccc2nc1/C(=N\Nc1ccccc1)C(O)c1ccc2c(c1)OCO2` (centres undefined), the TGI in the assay on A549 NSCLC, in the assay with BT-549 breast, with CCRF-CEM leukemia, in the assay with EKVX NSCLC, with M14 melanoma and in the assay with MDA-MB-231 breast was over 100 µM throughout. The TGI with MOLT-4 leukemia, in the assay on NCI-H23 lung, in the assay with NCI/ADR-RES ovarian and in the assay with PC-3 prostate was over 100 µM throughout.
Take `[Br][Pb]([c]1ccccc1)([c]1ccccc1)[c]1ccccc1`: the GI50 is 0.356 µM in the assay with A549 NSCLC; 0.198 µM with BT-549 breast; 0.202 µM in the assay on CCRF-CEM leukemia; 0.183 µM in the assay with EKVX NSCLC; 0.195 µM in the assay on M14 melanoma; 0.208 µM in the assay with MDA-MB-231 breast. In addition, the GI50 in the assay on MOLT-4 leukemia is 0.22 µM; with NCI-H23 lung, 0.174 µM; in the assay on NCI/ADR-RES ovarian, 0.229 µM; in the assay on PC-3 prostate it was 0.225 µM. Further, the TGI is 1.29 µM in the assay on A549 NSCLC; 0.541 µM in the assay with BT-549 breast; over 100 µM with CCRF-CEM leukemia; 0.439 µM in the assay on EKVX NSCLC; 0.409 µM in the assay with M14 melanoma; 0.514 µM in the assay with MDA-MB-231 breast. In addition, the TGI worked out at 0.418 µM in the assay with NCI-H23 lung, 0.561 µM in the assay with NCI/ADR-RES ovarian and 0.515 µM with PC-3 prostate.
`Nc1ccc(CC[C@H]2CCC/C=C/[C@@H]3C[C@H](O)C[C@H]3[C@H](O)/C=C/C(=O)O2)cc1`: the GI50 in the assay with A549 NSCLC was 0.0437 µM; in the assay on BT-549 breast, 0.0381 µM; with CCRF-CEM leukemia, 0.0437 µM; in the assay with EKVX NSCLC, 0.0374 µM; with M14 melanoma, 0.0337 µM; in the assay with MDA-MB-231 breast, 0.0212 µM. Also, the GI50 in the assay on MOLT-4 leukemia was 0.029 µM; with NCI-H23 lung, 0.0379 µM; with NCI/ADR-RES ovarian it was 0.0376 µM; with PC-3 prostate, 0.0494 µM. Moreover, the TGI in the assay with A549 NSCLC was over 100 µM; in the assay on BT-549 breast, 16.1 µM; with CCRF-CEM leukemia, over 64.9 µM; in the assay on EKVX NSCLC it was 2.49 µM; with M14 melanoma, 10.7 µM; in the assay on MDA-MB-231 breast, 0.0421 µM. The TGI in the assay on MOLT-4 leukemia was 0.0847 µM; in the assay with NCI-H23 lung, 1.06 µM; with PC-3 prostate, over 100 µM.
With `CCSC[C@@H]1C[C@](O)(c2ccccc2)[C@@H](c2ccccc2)O1`, the GI50 with A549 NSCLC was 82.9 µM; with BT-549 breast, 89.1 µM; in the assay on CCRF-CEM leukemia, over 71.5 µM; in the assay with EKVX NSCLC it was 59.2 µM; in the assay with M14 melanoma, over 90.1 µM; with MDA-MB-231 breast it was over 95 µM. The GI50 in the assay on MOLT-4 leukemia was 7.18 µM; in the assay with NCI-H23 lung, 79.9 µM; in the assay with NCI/ADR-RES ovarian, 77.8 µM; in the assay on PC-3 prostate it was 56.7 µM. The TGI in the assay with A549 NSCLC, with BT-549 breast, in the assay with CCRF-CEM leukemia, in the assay with EKVX NSCLC, in the assay with M14 melanoma and with MDA-MB-231 breast was over 100 µM in each case. Further, the TGI is over 23.7 µM in the assay with MOLT-4 leukemia, over 100 µM in the assay on NCI-H23 lung, over 100 µM with NCI/ADR-RES ovarian and over 100 µM in the assay on PC-3 prostate.
